In ChEMBL document CHEMBL1201862, “PubChem BioAssay data set” (2004):
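Cells were grown in 96-well plates and exposed to each compound for 48 hours at five concentrations; endpoints were interpolated linearly between bracketing concentrations, or set to the highest concentration if not reached. GI50 is the concentration that inhibits growth by half.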 Calls of active or inactive are those of the source. No stated cut-off is given here; in the data, active = GI50 up to about 1.1 µM and inactive = higher.

How the values were obtained:
Test in all cases: growth of human tumour cells (NCI), 48 h
K562 = test system: K562
HCT-15 = test system: HCT-15
KM-20L2 = test system: KM-20L2
NCI-H23 = test system: NCI-H23
A498 = test system: A498
HOP-62 = test system: HOP-62
SK-MEL-28 = test system: SK-MEL-28
DMS-273 = test system: DMS-273
CAKI-1 = test system: CAKI-1
NCI-H226 = test system: NCI-H226
COLO 205 = test system: COLO 205
NCI-H460 = test system: NCI-H460
HCT-116 = test system: HCT-116
EKVX = test system: EKVX
OVCAR-4 = test system: OVCAR-4
OVCAR-5 = test system: OVCAR-5
SF-539 = test system: SF-539
SK-OV-3 = test system: SK-OV-3
HCC 2998 = test system: HCC 2998
HOP-18 = test system: HOP-18
U-251 = test system: U-251
786-0 = test system: 786-0
OVCAR-8 = test system: OVCAR-8
TK-10 = test system: TK-10
HL-60 = test system: HL-60
LXFL 529 = test system: LXFL 529
KM12 = test system: KM12
OVCAR-3 = test system: OVCAR-3
IGROV-1 = test system: IGROV-1
UACC-62 = test system: UACC-62
LOX IMVI = test system: LOX IMVI
MOLT-4 = test system: MOLT-4
SNB-75 = test system: SNB-75
SF-268 = test system: SF-268
CCRF-CEM = test system: CCRF-CEM
SW-620 = test system: SW-620
M19-MEL = test system: M19-MEL
SR = test system: SR
M14 = test system: M14
HT-29 = test system: HT-29
SN12C = test system: SN12C
HOP-92 = test system: HOP-92
NCI-H522 = test system: NCI-H522
RPMI-8226 = test system: RPMI-8226
UO-31 = test system: UO-31
SK-MEL-5 = test system: SK-MEL-5
SK-MEL-2 = test system: SK-MEL-2
SNB-78 = test system: SNB-78
XF498 = test system: XF498
UACC-257 = test system: UACC-257
RXF 393 = test system: RXF 393
SNB-19 = test system: SNB-19
DLD-1 = test system: DLD-1
Malme-3M = test system: Malme-3M
SF-295 = test system: SF-295
ACHN = test system: ACHN
A549 = test system: A549
DMS-114 = test system: DMS-114

Measured: GI50

CCOC(=O)C(C(=O)OCC)c1ccc([N+](=O)[O-])o1
17.3 µM: HCT-15
inactive: K562 3.43 µM | KM-20L2 19.1 µM | NCI-H23 17.6 µM | A498 > 10 µM | HOP-62 > 50 µM | SK-MEL-28 14.1 µM | DMS-273 18 µM | CAKI-1 6.18 µM | NCI-H226 21.9 µM | COLO 205 3.27 µM | NCI-H460 20.3 µM | HCT-116 15.6 µM | EKVX 18.7 µM | OVCAR-4 17.3 µM | OVCAR-5 18.2 µM | SF-539 19.9 µM | SK-OV-3 62.2 µM | HCC 2998 17.3 µM | HOP-18 20 µM | U-251 18.7 µM | 786-0 6.64 µM | OVCAR-8 5.24 µM | TK-10 16.9 µM | HL-60 2.65 µM | LXFL 529 3.6 µM | KM12 17.5 µM | OVCAR-3 5.73 µM | IGROV-1 20.3 µM | UACC-62 17.9 µM | LOX IMVI 3.17 µM | MOLT-4 3.08 µM | SNB-75 20 µM | SF-268 25.4 µM | CCRF-CEM 2.53 µM | SW-620 3.39 µM | M19-MEL 17.5 µM | SR 6.93 µM | M14 13.7 µM | HT-29 14 µM | SN12C 18 µM | HOP-92 6.62 µM | NCI-H522 1.74 µM | RPMI-8226 6.87 µM | UO-31 15.6 µM | SK-MEL-5 17.3 µM | SK-MEL-2 18.6 µM | SNB-78 14 µM | XF498 17.1 µM | UACC-257 14.7 µM | RXF 393 12.4 µM | SNB-19 > 100 µM | DLD-1 4.58 µM | Malme-3M 6.73 µM | SF-295 20.6 µM | ACHN 10.2 µM | A549 21.5 µM

COc1cc2c3cc1Oc1c(O)c(OC)cc4c1C(Cc1ccc(O)c(c1)Oc1ccc(cc1)CC3N(C)CC2)N(C)CC4 (stereo not drawn)
11.6 µM: HCT-15
inactive: K562 3.03 µM | KM-20L2 5.56 µM | NCI-H23 23.7 µM | A498 18.2 µM | HOP-62 18.7 µM | SK-MEL-28 18.3 µM | DMS-273 13 µM | CAKI-1 17.3 µM | NCI-H226 21.4 µM | COLO 205 19.5 µM | NCI-H460 15.1 µM | HCT-116 6.55 µM | EKVX 21.9 µM | OVCAR-4 13.8 µM | OVCAR-5 22.7 µM | SF-539 2.46 µM | SK-OV-3 23.3 µM | HCC 2998 5.61 µM | HOP-18 27.9 µM | U-251 14.2 µM | 786-0 13.2 µM | OVCAR-8 14.3 µM | TK-10 13.6 µM | HL-60 21.5 µM | LXFL 529 4.92 µM | KM12 11.1 µM | OVCAR-3 16.9 µM | IGROV-1 26.2 µM | UACC-62 23.2 µM | LOX IMVI 3.01 µM | MOLT-4 8.34 µM | SNB-75 15 µM | SF-268 16.8 µM | CCRF-CEM 8.57 µM | SW-620 4.44 µM | M19-MEL 21.7 µM | M14 3.11 µM | HT-29 7.13 µM | SN12C 15.3 µM | HOP-92 11.9 µM | NCI-H522 15.1 µM | RPMI-8226 15.1 µM | UO-31 15.8 µM | DMS-114 20 µM | SK-MEL-5 18.5 µM | SK-MEL-2 23.6 µM | SNB-78 24.9 µM | XF498 19.4 µM | UACC-257 18.6 µM | RXF 393 2.44 µM | SNB-19 26 µM | Malme-3M 18.2 µM | SF-295 16.1 µM | ACHN 19 µM | A549 17.6 µM
